Test results: patent US6342503B1, “1N-alkyl-n-arylpyrimidinamines and derivatives thereof” (DuPont Pharmaceuticals Company, priority 1993, dated 2002)

Tests used:
[1] = target: T1, CRF receptor (Rattus norvegicus, UniProt P35353); assay: In vitro CRF receptor binding assay (competition with [125I] ovine CRF, rat cortex membranes); settings: read-out: Inhibition Ki
T1 construct: 100 μl of membrane suspension as prepared above to give a total reaction volume of 300 μl; from tissue; host or cells: rat cerebral cortex membrane homogenate
T1 sequence (P35353 24-415): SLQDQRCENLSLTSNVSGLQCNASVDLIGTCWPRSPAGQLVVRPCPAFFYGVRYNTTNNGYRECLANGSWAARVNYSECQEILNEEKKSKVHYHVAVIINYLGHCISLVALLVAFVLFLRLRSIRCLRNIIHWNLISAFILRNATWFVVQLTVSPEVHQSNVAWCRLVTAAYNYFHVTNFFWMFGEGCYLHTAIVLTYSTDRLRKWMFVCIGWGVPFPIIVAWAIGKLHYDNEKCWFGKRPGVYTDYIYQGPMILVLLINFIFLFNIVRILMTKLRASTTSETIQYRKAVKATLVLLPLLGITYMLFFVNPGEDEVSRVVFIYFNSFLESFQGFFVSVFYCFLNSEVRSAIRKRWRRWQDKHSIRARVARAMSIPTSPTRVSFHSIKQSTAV

Ki [1] | melting point | SMILES
< 500 nM | 56 to 58 °C | CCN(c1nc(C)cc(C(O)(c2ccccc2)c2ccccc2)n1)c1ccc(C(C)C)cc1Br [compound 293]
< 500 nM | 72 to 75 °C | CCN(c1nc(C)nc(N(C)C)n1)c1ccc(C(C)C)cc1Br [compound 240]
< 500 nM | 106 to 107 °C | CCN(c1nc(C)cc(N2CCCC2)n1)c1ccc(C(C)C)cc1Br [compound 192]
2000 to 10000 nM | 87 to 88 °C | CCN(c1nc(C)cc(C(=O)NCc2ccco2)n1)c1ccc(C(C)C)cc1Br [compound 270]

The next lines start with the compound.

SMILES | Ki [1] | melting point
CCN(c1nc(C)nc(C(C#N)c2ccccc2)n1)c1c(Br)cc(OC)cc1OC (stereo not shown) [compound 247] | < 500 nM | 50 to 52 °C
CCN(c1nc(C)cc(N2CC[S+]([O-])CC2)n1)c1ccc(C(C)C)cc1I [compound 56, N-ethyl-N-(2-iodo4-(1-methylethyl)phenyl)4-thiomorpholino-6-methyl-2-pyrimidinamine, S-oxide] | < 500 nM | 52 to 55 °C
COc1cc(Cl)c(Nc2nc(C)cc(C)n2)c(OC)c1 [compound 145] | 2000 to 10000 nM | 170 to 173 °C
CCN(c1nc(C)cc(C)n1)c1c(OC)cc(OC)c(Br)c1Br [compound 251, N-(2,3-Dibromo-4,6-dimethoxyphenyl)-N-ethyl-4,6-dimethyl-2-pyrimidinamine] | 501 to 2000 nM | 133 to 138 °C
